Reference: patent US8025905B2, “Method for reducing allergencity in indoor spaces” (priority 2001, dated 2011)

How the values were obtained:
[1] = ointment containing 5% permethrin applied for 12 hours, then washed off; cited from earlier work
house dust mites = settings: levels of only 0.1% permethrin; cited from earlier work
allergenic polypeptides = test: Enzymatic degradation of allergens by proteases; assay type: biochemical
Description: Any enzyme that will cleave the allergenic polypeptides to destroy the epitopes recognized by the asthmatic's sensitized immune system is suitable, but proteases that are less specific (i.e., hydrolyze peptide bonds between a variety of different amino acid residues, rather than only between specific residues) are preferred. […] Similar non-specific proteases are suitable for use in this invention, as well as Bacillus neutral proteases and the like. Genetically engineered enzymes are within the contemplation of this invention, so long as the resulting enzyme can be shown to destroy allergenic epitopes of the primary allergens, as shown by ELISA tests (see, e.g., U.S. Pat. No. 5,314,991). Suitable assays may be analogous to the tests for active T cell epitopes of Der pI, Der pII, Der f1, and Der fII disclosed in U.S. Pat. No. 5,968,526 (incorporated herein by reference).

| Molecule | permethrin absorbed through the skin [1] | kill of house dust mites in carpet (house dust mites) [%] | effectiveness in cleaving allergenic polypeptides (allergenic polypeptides) |
| --- | --- | --- | --- |
| CC1(C)C(C=C(Cl)Cl)C1C(=O)OCc1cccc(Oc2ccccc2)c1 (stereo not shown) [Permethrin] | Less than 2% | 100 |  |
| subtilisin savinase: subtilisin-type protease derived from Bacillus lentus (protein, UniProt P29600 1-269, looked up) Subtilisin Savinase: AQSVPWGISRVQAPAAHNRGLTGSGVKVAVLDTGISTHPDLNIRGGASFVPGEPSTQDGNGHGTHVAGTIAALNNSIGVLGVAPSAELYAVKVLGASGSGSVSSIAQGLEWAGNNGMHVANLSLGSPSPSATLEQAVNSATSRGVLVVAASGNSGAGSISYPARYANAMAVGATDQNNNRASFSQYGAGLDIVAPGVNVQSTYPGSTYASLNGTSMATPHVAGAAALVKQKNPSWSNVQIRNHLKNTATSLGSTNLYGSGLVNAEAATR |  |  | effective |
| subtilisin BPN: subtilisin-type protease derived from B. amyloliquefaciens (protein, UniProt P00782 108-382, looked up) Subtilisin BPN': AQSVPYGVSQIKAPALHSQGYTGSNVKVAVIDSGIDSSHPDLKVAGGASMVPSETNPFQDNNSHGTHVAGTVAALNNSIGVLGVAPSASLYAVKVLGADGSGQYSWIINGIEWAIANNMDVINMSLGGPSGSAALKAAVDKAVASGVVVVAAAGNEGTSGSSSTVGYPGKYPSVIAVGAVDSSNQRASFSSVGPELDVMAPGVSIQSTLPGNKYGAYNGTSMASPHVAGAAALILSKHPNWTNTQVRSSLENTTTKLGDSFYYGKGLINVQAAAQ |  |  | effective |
